Experimental findings from article PMC13429874, “ABHD2 activity is not required for the non-genomic action of progesterone on human sperm” (Human Reproduction (Oxford, England), 2026) are described below.

One assay concerns human sperm. In words: Sperm intracellular Ca2+ measurements (Fluo-4). Type of assay: cell-based. The protocol: Measurements of the changes in sperm intracellular Ca^2+ concentration ([Ca^2+]i) were performed on motile human sperm purified by swim-up. Semen samples were allowed to liquefy for 15–60 min at 37°C, and 0.5–1 ml liquified semen was layered beneath 4 ml human tubal fluid medium (HTF; 97.8 mM NaCl, 4.69 mM KCl, 0.2 mM MgSO4, 0.37 mM KH2PO4, 2.04 mM CaCl2, 2.78 mM glucose, 0.33 mM sodium pyruvate, 21.4 mM lactic acid, 4 mM NaHCO3, and 21 mM HEPES pH 7.35 adjusted with NaOH) in 50 ml conical tubes. Motile sperm were allowed to swim up into the HTF for 60–90 min at 37°C, collected, washed twice (700 × g, 20 min, 37°C), and resuspended in HTF containing 3 mg/ml HSA at a density of 1 × 10^7 sperm/ml. Changes of [Ca^2+]i in motile human sperm were measured as previously described ([Rennhack et al., 2018]), using a fluorescence plate-reader assay (FLUOstar Omega, BMG LABTECH) with 384-well plates. Swim-up-purified sperm were loaded with Fluo4-AM (5 μM, Thermo Fisher Scientific, Waltham, MA, USA) and Pluronic F-127 (0.05% w/v) for 20 min at 37°C. Excess dye was removed by centrifugation at 700 × g for 5 min, supernatant removal, and resuspension to 5 × 10^6 sperm/ml in HTF.
For recordings, wells of a 384-well plate were filled with 50 μl of the dye-loaded sperm suspension. Fluorescence was excited at 480 nm, and emission was recorded at 520 nm using a plate reader (Fluostar Omega, BMG Labtech). After establishing a baseline for at least 60 s, 25 µl test compound solutions were added and the fluorescence response recorded. After 4 min, 7.5 µl progesterone was added to reach a final concentration of 3 µM, and ensuing changes in fluorescence were recorded. For the analysis of compound-evoked Ca^2+ signal, basal fluorescence (F0) was determined prior to compound addition. For the determination of inhibitory effects of compounds on progesterone-evoked Ca^2+ signals, basal fluorescence (F0) was determined before progesterone addition. The CatSper inhibitor TS150 ([Schierling et al., 2023]) was used as a control. Each compound was tested in technical duplicates across ≥3 biological replicates, using sperm from at least two donors, and performed on at least two separate days.
Data analysis and graphical representation were performed with GraphPad Prism software version 10.6.1 (San Diego, CA, USA). Changes in Fluo-4 fluorescence are depicted as ΔF/F0 (%), i.e. the change in fluorescence (ΔF) relative to the mean basal fluorescence (F0) before application of buffer or compounds/ligands, to correct for intra- and inter-experimental variations in basal fluorescence among individual wells or to correct for compound-evoked changes in fluorescence. Signal amplitudes evoked in the presence of compounds were normalized to the maximal signal amplitude evoked by 3 µM progesterone in the absence of the compound (set to 1) to ease comparisons between experiments.

The next assay addresses T1, ABHD2^L33–E425 (Homo sapiens, UniProt P08910).
T1 construct: expression for ABHD2 amino acids L33–E425, in which a predicted transmembrane domain (amino acids 1–32) is removed; His6-FLAG (N); made in house; host or cells: E. coli BL21(DE3)-R3-pRARE2
T1 sequence (P08910 33-425): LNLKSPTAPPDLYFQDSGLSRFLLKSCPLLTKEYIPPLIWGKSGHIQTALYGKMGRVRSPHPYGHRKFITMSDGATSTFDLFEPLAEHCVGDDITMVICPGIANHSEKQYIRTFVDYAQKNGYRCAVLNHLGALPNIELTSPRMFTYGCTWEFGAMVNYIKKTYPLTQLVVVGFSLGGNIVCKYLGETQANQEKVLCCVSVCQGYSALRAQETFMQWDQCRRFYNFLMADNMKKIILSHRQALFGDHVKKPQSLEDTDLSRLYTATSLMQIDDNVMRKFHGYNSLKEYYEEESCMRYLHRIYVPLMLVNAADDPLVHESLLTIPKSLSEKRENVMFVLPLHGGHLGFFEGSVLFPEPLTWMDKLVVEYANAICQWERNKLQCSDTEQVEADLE
Put plainly: ABHD2^L33-E425 fluorometric enzymatic activity assay with 7-HCA substrate. The format is biochemical. Particulars: 10 nM enzyme, 10 µM 7-HCA; read-out: IC50 for ABHD2^L33-425, fluorometric assay using 7-HCA.

For the next assay, the target named is T2, human ABHD10 (Homo sapiens, UniProt Q9NUJ1).
T2 construct: Constructs encoding amino acids T53—N306 of human ABHD10; His6-TEV site (N); made in house; host or cells: E. coli
T2 sequence (Q9NUJ1 53-306): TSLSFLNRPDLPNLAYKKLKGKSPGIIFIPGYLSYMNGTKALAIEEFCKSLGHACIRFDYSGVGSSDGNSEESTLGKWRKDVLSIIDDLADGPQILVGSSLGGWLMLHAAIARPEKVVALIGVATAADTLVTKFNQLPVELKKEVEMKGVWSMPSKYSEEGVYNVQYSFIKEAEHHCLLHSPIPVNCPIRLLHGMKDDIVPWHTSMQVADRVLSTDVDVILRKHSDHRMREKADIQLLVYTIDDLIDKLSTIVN
In words: ABHD10 colorimetric assay with p-nitrophenyl butyrate. The format is biochemical. Particulars: 10 µM compound, 500 µM p-NPB. On the procedure:
Enzymatic activities of ABHD10 and ABHD11 were measured in a colorimetric assay using p-nitrophenyl butyrate (p-NPB) as substrate. Enzymes at 1500 nM ABHD10 and 125 nM ABHD11 in 20 mM HEPES pH 7.5, 150 mM NaCl, and 2% (v/v) DMSO were pre-incubated in 96-well plates with 50 µM test compound for 30 min at 4°C. Plates were then equilibrated at 37°C for 2 min, and reactions were initiated by adding 160 µl of pre-warmed substrate solution (same buffer with 625 µM p-NPB) to a total volume of 200 µl, yielding final assay concentrations of 300 nM ABHD10, 25 nM ABHD11, and 500 µM pNPB. The substrate solution was prepared immediately before addition to the enzyme mixtures. Absorbance at 405 nm was recorded on a SpectraMax iD3 plate reader (Molecular Devices) for 20 min with continuous monitoring at 30 s intervals.

SMILES strings stand for the structures.

In the case of `CC1CCCN(C(=O)c2ccccc2C(=O)c2ccccc2)C1` (stereo not shown) [Compound 4], in the assay on human sperm (10 µM compound), the “compound-evoked changes in [Ca2+]i” value was “only minuscule changes”. The “effect on progesterone-induced Ca2+ signal (amplitude and waveform)” value in the assay on human sperm (compounds 10 µM, TS150 60 µM, progesterone 3 µM) is on record as “similar”. The IC50 (as a rule, the concentration needed to halve the response being measured) at ABHD2^L33–E425 is 0.36 µM. On human ABHD10, the “inhibition of ABHD10” value is given as “no detectable inhibition”.
